The record followed here is patent US8574563B2 (Bristol-Myers Squibb Company, priority 2006, dated 2013).

The structures appear in SMILES notation. pEC50: −log10 of the molar value.

As usually defined, the pEC50 is the negative decadic logarithm of the EC50, by convention in mol/L.

The subject of the first assay is HCV 1b-377-neo replicon cells. Description: HCV replicon assay, HCV 1b-377-neo replicon cells (1b FRET). Type of assay: cell-based, Hepatitis C virus genotype 1b. The note with it: HCV 1b-377-neo replicon cells; HCV 1b genotype. An outline of the steps: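 Compounds tested in HCV genotype 1b-377-neo replicon cells with a FRET read-out. Cells resistant to a reference NS5A inhibitor through a Y2065H NS5A mutation were run alongside wild-type cells.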
(In general: Replicon systems follow genome replication, usually without infectious particles.)
For `COC(=O)N[C@@H](C(=O)N1CCC[C@H]1c1ncc(-c2ccc(-c3ccc(-c4cnc([C@@H]5CCCN5C(=O)[C@H](NC(=O)OC)c5ccccc5)[nH]4)cc3C(=O)O)cc2)[nH]1)c1ccccc1` [Example M117, 4,4′-bis(2-((2S)-1-((2R)-2-((methoxycarbonyl)amino)-2-phenylacetyl)-2-pyrrolidinyl)-1H-imidazol-5-yl)-2-biphenylcarboxylic acid], the “EC50 range against HCV 1b (Table 2, Range)” value was “>A”.

Staying with this assay, now noted: HCV 1b-377-neo replicon cells; HCV 1b genotype; read-out: EC50 range against HCV 1b (Table 2, Range).
Consider `COC(=O)N[C@@H](C(=O)N1CCC[C@H]1c1ncc(-c2ccc(-c3ccc(-c4cnc([C@@H]5CCCN5C(=O)c5ccccn5)[nH]4)cc3)cc2)[nH]1)c1ccccc1` [Example 67, methyl ((1R)-2-oxo-1-phenyl-2-((2S)-2-(5-(4′-(2-((2S)-1-(2-pyridinylcarbonyl)-2-pyrrolidinyl)-1H-imidazol-5-yl)-4-biphenylyl)-1H-imidazol-2-yl)-1-pyrrolidinyl)ethyl)carabamate], for which the pEC50 is 9.00 to 12.00.

Still in this assay, the particulars now being: Hepatitis C virus, HCV 1b-377-neo replicon cells; HCV 1b genotype; read-out: EC50 range against HCV 1b (Table 2, Range).
Regarding `COC(=O)N[C@H](C(=O)N1CCC[C@H]1c1ncc(-c2ccc(-c3ccc(-c4cnc([C@@H]5CCCN5C(=O)[C@@H](Nc5noc(N)n5)C(C)C)[nH]4)cc3)cc2)[nH]1)C(C)C` [cj-16, methyl ((1S)-1-(((2S)-2-(5-(4′-(2-((2S)-1-(N-(5-amino-1,2,4-oxadiazol-3-yl)-L-valyl)-2-pyrrolidinyl)-1H-imidazol-5-yl)-4-biphenylyl)-1H-imidazol-2-yl)-1-pyrrolidinyl)carbonyl)-2-methylpropyl)carbamate], the pEC50 is 9.00 to 12.00. Take `CN(C)[C@@H](C(=O)N1CC(F)(F)C[C@H]1c1ncc(-c2ccc(-c3ccc(-c4cnc([C@@H]5CC(F)(F)CN5C(=O)[C@@H](c5ccccc5)N(C)C)[nH]4)cc3)cc2)[nH]1)c1ccccc1` [OL-8, (1R,1′R)-2,2′-(4,4′-biphenyldiylbis(1H-imidazole-4,2-diyl((2S)-4,4-difluoro-2,1-pyrrolidinediyl)))bis(N,N-dimethyl-2-oxo-1-phenylethanamine)]: the pEC50 was 9.00 to 12.00. Take `COC(=O)N[C@H]1CCC[C@@H]1C(=O)N1CCC[C@H]1c1ncc(-c2ccc(-c3ccc(-c4cnc([C@@H]5CCCN5C(=O)[C@H](NC(=O)OC)c5ccccc5)[nH]4)cc3)cc2)[nH]1` [cj-117, methyl ((1R)-2-((2S)-2-(5-(4′-(2-((2S)-1-(((1S,2S)-2-((methoxycarbonyl)amino)cyclopentyl)carbonyl)-2-pyrrolidinyl)-1H-imidazol-5-yl)-4-biphenylyl)-1H-imidazol-2-yl)-1-pyrrolidinyl)-2-oxo-1-phenylethyl)carbamate]: the pEC50 is 9.00 to 12.00. On to `COC(=O)c1nc([C@@H]2CCCN2C(=O)[C@@H](c2ccccc2)N(C)C)[nH]c1-c1ccc(-c2ccc(-c3cnc([C@@H]4CCCN4C(=O)[C@@H](c4ccccc4)N(C)C)[nH]3)cc2)cc1` [Example J17, methyl 2-((2S)-l-((2R)-2-(dimethylamino)-2-phenylacetyl)-2-pyrrolidinyl)-5-(4′-(2-((2S)-1-((2R)-2-(dimethylamino)-2-phenylacetyl)-2-pyrrolidinyl)-1H-imidazol-5-yl)-4-biphenylyl)-1H-imidazole-4-carboxylate], for which the pEC50 was 9.00 to 12.00. In the case of `COC(=O)N[C@H](C(=O)N1CCC[C@H]1c1ncc(-c2ccc(-c3ccc(-c4nc([C@@H]5CCCN5C(=O)[C@@H](NC(=O)OC)C(C)C)[nH]c4CC(OC)OC)cc3)cc2)[nH]1)C(C)C` [Example J14a.1, methyl ((1S)-1-(((2S)-2-(4-(2,2-dimethoxyethyl)-5-(4′-(2-((2S)-1-((2S)-2-((methoxycarbonyl)amino)-3-methylbutanoyl)-2-pyrrolidinyl)-1H-imidazol-4-yl)-4-biphenylyl)-1H-imidazol-2-yl)-1-pyrrolidinyl)carbonyl)-2-methylpropyl)carbamate], the pEC50 was 9.00 to 12.00. As to `COC(=O)N[C@@H](C(=O)N1CCC[C@H]1c1ncc(-c2ccc(-c3ccc(-c4cnc([C@@H]5CCCN5C(=O)N(C)C)[nH]4)cc3)cc2)[nH]1)c1ccccc1` [Example 50, methyl ((1R)-2-((2S)-2-(5-(4′-(2-((2S)-1-(dimethylcarbamoyl)-2-pyrrolidinyl)-1H-imidazol-5-yl)-4-biphenylyl)-1H-imidazol-2-yl)-1-pyrrolidinyl)-2-oxo-1-phenylethyl)carbamate], the pEC50 was 6.00 to 7.00.

Take `CC(=O)OC(C(=O)N1CCC[C@H]1c1ncc(-c2ccc(-c3ccc(-c4cnc([C@@H]5CCCN5C(=O)[C@@H](c5ccccc5F)N(C)C)[nH]4)cc3)cc2)[nH]1)c1ccccc1` (stereo in doubt) [Example 107-33, (1R)-2-((2S)-2-(5-(4′-(2-((2S)-1-((2R)-2-(dimethylamino)-2-(2-fluorophenyl)acetyl)-2-pyrrolidinyl)-1H-imidazol-5-yl)-4-biphenylyl)-1H-imidazol-2-yl)-1-pyrrolidinyl)-2-oxo-1-phenylethyl acetate]: the pEC50 is 9.00 to 12.00. Same read-out and setting: in the case of `COC(=O)N[C@@H](C(=O)N1CCC[C@@H]1c1ncc(-c2ccc(-c3ccc(-c4cnc([C@@H]5CC[C@H](c6ccccc6)N5C(=O)[C@H](NC(=O)OC)c5ccccc5)[nH]4)cc3)cc2)[nH]1)c1ccccc1` [Example F6, methyl ((1R)-2-((2R)-2-(5-(4′-(2-((2S,5R)-1-((2R)-2-((methoxycarbonyl)amino)-2-phenylacetyl)-5-phenyl-2-pyrrolidinyl)-1H-imidazol-5-yl)-4-biphenylyl)-1H-imidazol-2-yl)-1-pyrrolidinyl)-2-oxo-1-phenylethyl)carbamate] it was 9.00 to 12.00. As for `CN(C)[C@@H](C(=O)N1CCC[C@H]1c1ncc(-c2ccc(-c3ccc(-c4cnc([C@@H]5CCCN5C(=O)[C@@H]5CCCO5)[nH]4)cc3)cc2)[nH]1)c1ccccc1` [Example 87, (1R)-N,N-dimethyl-2-oxo-1-phenyl-2-((2S)-2-(5-(4′-(2-((2S)-1-((2S)-tetrahydro-2-furanylcarbonyl)-2-pyrrolidinyl)-1H-imidazol-5-yl)-4-biphenylyl)-1H-imidazol-2-yl)-1-pyrrolidinyl)ethanamine], the pEC50 was 9.00 to 12.00. Turning to `COC(=O)N[C@H](C(=O)N1C[C@H](F)C[C@H]1c1ncc(-c2ccc(-c3ccc(-c4cnc([C@@H]5C[C@@H](F)CN5C(=O)[C@@H](NC(=O)OC)C(C)C)[nH]4)cc3)cc2)[nH]1)C(C)C` [JG-16, methyl ((1S)-1-(((2S,4R)-4-fluoro-2-(5-(4′-(2-((2S,4R)-4-fluoro-1-((2S)-2-((methoxycarbonyl)amino)-3-methylbutanoyl)-2-pyrrolidinyl)-1H-imidazol-5-yl)-4-biphenylyl)-1H-imidazol-2-yl)-1-pyrrolidinyl)carbonyl)-2-methylpropyl)carbamate], the pEC50 is 9.00 to 12.00. Take `CCC(=O)N1CCC[C@H]1c1ncc(-c2ccc(-c3ccc(-c4cnc([C@@H]5CCCN5C(=O)[C@H](NC(=O)OC)c5ccccc5)[nH]4)cc3)cc2)[nH]1` [Example 32, methyl ((1R)-2-oxo-1-phenyl-2-((2S)-2-(5-(4′-(2-((2S)-1-propionyl-2-pyrrolidinyl)-1H-imidazol-5-yl)-4-biphenylyl)-1H-imidazol-2-yl)-1-pyrrolidinyl)ethyl)carbamate]: the pEC50 was 7.00 to 9.00.

For the molecule `COC(=O)N[C@H](C(=O)N1C[C@H](O)C[C@H]1c1ncc(-c2ccc(-c3ccc(-c4cnc([C@@H]5C[C@@H](O)CN5C(=O)[C@@H](NC(=O)OC)C(C)C)[nH]4)cc3)cc2)[nH]1)C(C)C` [JG-5, methyl ((1S)-1-(((2S,4R)-4-hydroxy-2-(5-(4′-(2-((2S,4R)-4-hydroxy-1-((2S)-2-((methoxycarbonyl)amino)-3-methylbutanoyl)-2-pyrrolidinyl)-1H-imidazol-5-yl)-4-biphenylyl)-1H-imidazol-2-yl)-1-pyrrolidinyl)carbonyl)-2-methylpropyl)carbamate], the pEC50 is 9.00 to 12.00. Take `COC(=O)N[C@H](C(=O)N1CCC[C@H]1c1ncc(-c2ccc(-c3ccc(-c4nc([C@@H]5CCCN5C(=O)[C@@H](NC(=O)OC)C(C)C)[nH]c4CO)cc3)cc2)[nH]1)C(C)C` [Example J14f, methyl ((1S)-1-(((2S)-2-(4-(hydroxymethyl)-5-(4′-(2-((2S)-1-((2S)-2-((methoxycarbonyl)amino)-3-methylbutanoyl)-2-pyrrolidinyl)-1H-imidazol-4-yl)-4-biphenylyl)-1H-imidazol-2-yl)-1-pyrrolidinyl)carbonyl)-2-methylpropyl)carbamate]: the pEC50 was 9.00 to 12.00. `COC(=O)N[C@@H]1CCCC[C@@H]1C(=O)N1CCC[C@H]1c1ncc(-c2ccc(-c3ccc(-c4cnc([C@@H]5CCCN5C(=O)[C@H](NC(C)=O)c5ccccc5)[nH]4)cc3)cc2)[nH]1` [cj-98, methyl ((1R,2S)-2-(((2S)-2-(5-(4′-(2-((2S)-1-((2R)-2-acetamido-2-phenylacetyl)-2-pyrrolidinyl)-1H-imidazol-5-yl)-4-biphenylyl)-1H-imidazol-2-yl)-1-pyrrolidinyl)carbonyl)cyclohexyl)carbamate]: the pEC50 is 9.00 to 12.00. Still for that read-out and setting: in the case of `COC(=O)N[C@@H](C(=O)N1CCC[C@H]1c1ncc(-c2ccc(-c3ccc(-c4cnc([C@@H]5CCCN5C(=O)[C@H](NC(=O)OC)c5ccccc5)[nH]4)cc3C)cc2)[nH]1)c1ccccc1` [Example 124, dimethyl ((2-methyl-4,4′-biphenyldiyl)bis(1H-imidazole-5,2-diyl(2S)-2,1-pyrrolidinediyl((1R)-2-oxo-1-phenyl-2,1-ethanediyl)))biscarbamate] it was 9.00 to 12.00. As for `CCN(CC)[C@@H](C(=O)N1CCC[C@H]1c1ncc(-c2ccc(-c3ccc(-c4cnc([C@@H]5CCCN5C(=O)C[C@@H](Cc5ccsc5)NC(=O)OC)[nH]4)cc3)cc2)[nH]1)c1ccccc1` [cj-55, methyl ((1R)-3-((2S)-2-(5-(4′-(2-((2S)-1-((2R)-2-(diethylamino)-2-phenylacetyl)-2-pyrrolidinyl)-1H-imidazol-5-yl)-4-biphenylyl)-1H-imidazol-2-yl)-1-pyrrolidinyl)-3-oxo-1-(3-thienylmethyl)propyl)carbamate], the pEC50 is 9.00 to 12.00.
